Here are results for 17 molecules from US8551978B2 (Theravance, Inc., priority 2009, dated 2013).

For orientation: Ki means the equilibrium dissociation constant of an inhibitor or competing ligand from its target. One may read the EC50 as the concentration giving half of the maximal effect. Low readings indicate greater potency, high ones weaker potency.

The target of one assay is hM3 muscarinic receptor (Homo sapiens (Human), UniProt P20309). Description: Radioligand binding assay for muscarinic receptors ([3H]-NMS displacement, CHO cell membranes). On the procedure: The cells were grown in a 5% CO2, 37° C. incubator and lifted with 2 mM EDTA in dPBS. Cells were collected by 5 minute centrifugation at 650×g, and cell pellets were either stored frozen at −80° C. or membranes were prepared immediately for use. For membrane preparation, cell pellets were resuspended in lysis buffer and homogenized with a Polytron PT-2100 tissue disrupter (Kinematica AG; 20 seconds×2 bursts). Crude membranes were centrifuged at 40,000×g for 15 minutes at 4° C. The membrane pellet was then resuspended with re-suspension buffer and homogenized again with the Polytron tissue disrupter. The protein concentration of the membrane suspension was determined by the method described in Lowry et al., 1951, […], 193, 265. All membranes were stored frozen in aliquots at −80° C. or used immediately. […] The membranes were briefly homogenized using a Polytron tissue disruptor (10 seconds) prior to assay plate addition. […] The test compounds were initially dissolved to a concentration of 400 μM in dilution buffer and then serially diluted 5× with dilution buffer to final concentrations ranging from 10 μM to […]. The order of addition and volumes added to the assay plates were as follows: 25 μL radioligand, 25 μL diluted test compound, and 50 μL membranes. Assay plates were incubated for 6 hours at 37° C. […] Filter plates were rinsed three times with wash buffer (10 mM HEPES) to remove unbound radioactivity. The plates were then air-dried and 50 μL Microscint-20 liquid scintillation fluid (PerkinElmer, Inc.) were added to each well. The plates were then counted in a PerkinElmer Topcount liquid scintillation counter (PerkinElmer, Inc.). Binding data were analyzed by nonlinear regression analysis with the GraphPad Prism Software package (GraphPad Software, Inc., San Diego, Calif.) using the one-site competition model. […] These summary statistics were then converted back to K; values for data reporting.
hM3 muscarinic receptor, sequence (P20309 whole entry): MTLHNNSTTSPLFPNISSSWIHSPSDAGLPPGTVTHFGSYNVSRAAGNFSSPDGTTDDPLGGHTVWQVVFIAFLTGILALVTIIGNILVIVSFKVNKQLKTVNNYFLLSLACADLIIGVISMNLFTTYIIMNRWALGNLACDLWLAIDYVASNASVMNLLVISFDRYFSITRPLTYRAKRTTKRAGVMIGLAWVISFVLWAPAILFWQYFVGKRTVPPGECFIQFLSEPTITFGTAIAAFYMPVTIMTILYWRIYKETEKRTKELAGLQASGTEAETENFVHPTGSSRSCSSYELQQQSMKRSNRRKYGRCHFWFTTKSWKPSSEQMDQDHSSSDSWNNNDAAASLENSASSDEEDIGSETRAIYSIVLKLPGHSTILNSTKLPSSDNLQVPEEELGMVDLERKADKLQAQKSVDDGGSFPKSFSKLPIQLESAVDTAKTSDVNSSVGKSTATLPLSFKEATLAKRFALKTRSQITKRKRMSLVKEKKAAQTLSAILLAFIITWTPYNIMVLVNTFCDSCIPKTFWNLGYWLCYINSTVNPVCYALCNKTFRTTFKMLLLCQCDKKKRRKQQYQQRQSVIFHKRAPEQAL

The subject of assay [1] is MCh-induced bronchoconstriction. Description: Einthoven assay: bronchoprotection against methacholine (MCh)-induced bronchoconstriction. It is filed as in vivo, rat. The settings on record: for inhibition in vivo at 0.1 mg: inhaled or nasal, read-out: Broncho. at 24 h. On the procedure: This assay measures the ability of a test compound to provide bronchoprotection against methacholine (MCh)-induced bronchoconstriction in a rat. Male Sprague-Dawley rats (Harlan, Indianapolis, Ind.), weighing between 200 g and 350 g, were used for all studies. Test compound or vehicle (sterile deionized water) were dosed by inhalation (1H) over a 10 min period in a pie shaped inhalation chamber (R+S Molds, San Carlos, Calif.) using 5 mL of dosing solution. […] Rats were dosed with 100 μg of test compound unless otherwise indicated. At predetermined time points, rats were anesthetized with an intraperitoneal (IP) injection of 120 mg/kg inactin (thiobutabarbital). A supplemental dose (40 mg/kg, IP) was administered if the animal responded to physical stimuli (e.g. toe pinch). The surgical site was shaved and a 1-2 cm midline incision of the ventral aspect of the neck was made. The jugular vein was isolated and cannulated with a saline-filled polyethylene catheter (PE-50) to allow IV infusion of MCh. Trachea was dissected free and cannulated with a 14G needle (#NE-014, Small Parts, Miami Lakes, Fla.). After placement of the tracheal cannula, each rat was ventilated using a respirator (Model 683, Harvard Apparatus, Inc., MA) set at a stroke volume of 1 mL/100 g body weight (but not exceeding 2.5 mL volume) and a rate of 90 strokes per minute. A T-connector was placed along the respirator expiratory tubing to allow for measurement of changes in ventilation pressure (VP) using a Biopac transducer that was connected to a Biopac […]) pre-amplifier. Body temperature was maintained at 37° C. using a heating pad. Changes in VP were recorded using the Acknowledge Data Collection Software (Santa Barbara, Calif.). Baseline values were collected for at least 2.5 min. Rats were then challenged with non-cumulative intravenous (IV) infusions of 40 and 80 μg/kg MCh. MCh was infused intravenously for 2.5 minutes from a syringe pump (sp210iw, World Precision Instruments, Inc., Sarasota, Fla.) at a rate of 2 mL/kg/min, with a 2 minute interval between the two doses of MCh. Changes in ventilation pressure (cm H2O) in treated animals are expressed as % inhibition of MCh response relative to control animals. Other bronchoconstrictors, such as histamine and acetylcholine, can be used in place of MCh in this assay. Additionally, guinea pigs can be used instead of rats. […] Inhibition greater than or equal to 30 percent at 24 h is indicative of a long duration of action.

For another assay, the target named is hβ2 adrenergic receptor (Homo sapiens (Human), UniProt P07550). Description: Assay for determining adrenergic receptor agonist potency (cAMP Flashplate, HEK-293 cells). The class given is cell-based. The settings on record: data rounded to nearest 1 nM. On the procedure:
The cell monolayer was lifted with 2 mM EDTA in PBS. Cells were pelleted by centrifugation at 1,000 rpm, and cell pellets were either stored frozen at −80° C. or membranes were prepared immediately for use. cAMP assays were performed in a radioimmunoassay format using the Flashplate Adenylyl Cyclase Activation Assay System with [^125I]-cAMP (NEN SMP004, PerkinElmer Life Sciences Inc., Boston, Mass.), according to the manufacturers instructions. […] Cells were rinsed with PBS and detached in dPBS (Dulbecco's Phosphate Buffered Saline, without CaCl2 and MgCl2) containing 2 mM EDTA or Trypsin-EDTA solution (0.05% trypsin/0.53 mM EDTA). After counting cells in Coulter cell counter, cells were pelleted by centrifugation at 1,000 rpm and re-suspended in stimulation buffer containing TBMX (PerkinElmer Kit) pre-warmed to room temperature to a concentration of 1.6×10^6 to 2.8×10^6 cells/mL. About 40,000 to 80,000 cells per well were used in this assay. […] Reactions were incubated for 10 min at 37° C. and stopped by adding 100 μL of cold detection buffer containing [^125I]-cAMP (NEN SMP004, PerkinElmer Life Sciences, Boston, Mass.). […] Data were analyzed by nonlinear regression analysis with the GraphPad Prism Software package (GraphPad Software, Inc., San Diego, Calif.) with the sigmoidal equation. The Cheng-Prusoff equation (Cheng Y, and Prusoff W H., Biochemical Pharmacology, 1973, 22, 23, 3099-108) was used to calculate the EC50 values.

The mark [2] stands for this setting: rat, 100 μg by inhalation, 24 h after administration.
Where [3] appears, read: hM3 Muscarinic Receptor Binding, data rounded to nearest 0.1 nM.

Where a name gives a salt, the structure may show the parent alone. Read-outs that look alike come from different tables or passages of the source.

hβ2 adrenergic receptor, sequence (P07550 whole entry): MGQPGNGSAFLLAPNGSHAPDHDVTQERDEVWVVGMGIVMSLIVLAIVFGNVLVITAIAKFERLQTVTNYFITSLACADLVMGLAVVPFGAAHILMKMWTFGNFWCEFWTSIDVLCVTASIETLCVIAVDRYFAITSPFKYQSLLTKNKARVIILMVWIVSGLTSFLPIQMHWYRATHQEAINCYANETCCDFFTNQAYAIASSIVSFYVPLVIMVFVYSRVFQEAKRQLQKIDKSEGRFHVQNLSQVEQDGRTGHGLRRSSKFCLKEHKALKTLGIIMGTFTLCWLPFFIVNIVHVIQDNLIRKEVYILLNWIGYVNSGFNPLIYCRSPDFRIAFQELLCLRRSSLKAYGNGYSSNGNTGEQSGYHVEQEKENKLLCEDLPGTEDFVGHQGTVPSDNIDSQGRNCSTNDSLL

Consider `Cc1cc(CNC[C@H](O)c2ccc(O)c3[nH]c(=O)ccc23)ccc1NC(=O)CCCN(C)C(=O)CCN1CCC(OC(=O)Nc2ccccc2-c2ccccc2)CC1` [Compound I-2], for which affinity at hM3 muscarinic receptor was put at a Ki of 0.1 nM. The “Broncho. at 24 h” value in assay [1] (setting [2]) is recorded as “No”. On hβ2 adrenergic receptor, this molecule gave an EC50 of 1 nM.
For the molecule `COc1cc(CNC[C@H](O)c2ccc(O)c3[nH]c(=O)ccc23)ccc1NC(=O)CCCN(C)C(=O)CCN1CCC(OC(=O)Nc2ccccc2-c2ccccc2)CC1` [Compound I-3], at hM3 muscarinic receptor (setting [3]), the Ki came to 0.1 nM. Moreover, the inhibition in vivo at 0.1 mg in assay [1] (setting [2]) is above 30%. Besides, it took 1 nM to reach a half-maximal effect at hβ2 adrenergic receptor (EC50).
In the case of `COc1cc(NC(=O)CCCN(C)C(=O)CCN2CCC(OC(=O)Nc3ccccc3-c3ccccc3)CC2)ccc1CNC[C@H](O)c1ccc(O)c2[nH]c(=O)ccc12` [Compound I-4], the Ki on hM3 muscarinic receptor (setting [3]) amounted to 0.1 nM. Further, the inhibition in vivo at 0.1 mg in assay [1] (setting [2]) is above 30%. Further, on hβ2 adrenergic receptor, the EC50 came out at 2 nM.
At hM3 muscarinic receptor, `Cc1cc(NC(=O)CCCN(C)C(=O)CCN2CCC(OC(=O)Nc3ccccc3-c3ccccc3)CC2)c(C)cc1CNC[C@H](O)c1ccc(O)c2[nH]c(=O)ccc12` [Compound I-5] had a Ki of 0.1 nM. Moreover, the inhibition in vivo at 0.1 mg in assay [1] (setting [2]) is above 30%. The same molecule came in with an EC50 at hβ2 adrenergic receptor of 1 nM.
Turning to `COc1cc(NC(=O)CCCN(C)C(=O)CCN2CCC(OC(=O)Nc3ccccc3-c3ccccc3)CC2)c(Cl)cc1CNC[C@H](O)c1ccc(O)c2[nH]c(=O)ccc12` [Compound I-6], the inhibition constant Ki at hM3 muscarinic receptor (setting [3]) stood at 0.1 nM. Further, the inhibition in vivo at 0.1 mg in assay [1] (setting [2]) was above 30%. The EC50 at hβ2 adrenergic receptor stood at 1 nM.
The molecule `CN(CCCC(=O)Nc1cccc(CCNC[C@H](O)c2ccc(O)c3[nH]c(=O)ccc23)c1)C(=O)CCN1CCC(OC(=O)Nc2ccccc2-c2ccccc2)CC1` [Compound I-7, Biphenyl-2-ylcarbamic Acid 1-(2-{[3-(3-{2-[(R)-2-Hydroxy-2-(8-hydroxy-2-oxo-1,2-dihydroquinolin-5-yl)ethylamino]ethyl}phenylcarbamoyl)-propyl]methylcarbamoyl}ethyl)piperidin-4-yl Ester Ditrifluoroacetic Acid Salt] yielded a Ki on hM3 muscarinic receptor of 0.1 nM. In addition, the inhibition in vivo at 0.1 mg in assay [1] (Rattus norvegicus, 24 h) was above 30%. The molecule also had a half-maximal effective concentration (EC50) at hβ2 adrenergic receptor of 1 nM.
`CN(CCCC(=O)Nc1ccc(CCNC[C@H](O)c2ccc(O)c3[nH]c(=O)ccc23)cc1)C(=O)CCN1CCC(OC(=O)Nc2ccccc2-c2ccccc2)CC1` [Compound I-8]: the Ki on hM3 muscarinic receptor was determined as 0.1 nM. In addition, in assay [1] (setting [2]), the inhibition in vivo at 0.1 mg was above 30%. The EC50 at hβ2 adrenergic receptor was 1 nM.
On to `CC(Cc1cccc(NC(=O)CCCN(C)C(=O)CCN2CCC(OC(=O)Nc3ccccc3-c3ccccc3)CC2)c1)NC[C@H](O)c1ccc(O)c2[nH]c(=O)ccc12` (stereo partly drawn) [Compound I-10], for which the affinity at hM3 muscarinic receptor, expressed as Ki, was 0.1 nM. Besides, the inhibition in vivo at 0.1 mg in assay [1] (setting [2]) is above 30%. The EC50 at hβ2 adrenergic receptor is 1 nM.
`CC(Cc1cccc(CC(=O)NCCCN(C)C(=O)CCN2CCC(OC(=O)Nc3ccccc3-c3ccccc3)CC2)c1)NC[C@H](O)c1ccc(O)c2[nH]c(=O)ccc12` (stereo partly drawn) [Compound I-11] had a Ki on hM3 muscarinic receptor of 0.1 nM. The inhibition in vivo at 0.1 mg in assay [1] (setting [2]) was above 30%. On hβ2 adrenergic receptor, this molecule returned a 50% effective concentration (EC50) of 1 nM.
Turning to `C[C@H](Cc1cccc(CC(=O)NCCCN(C)C(=O)CCN2CCC(OC(=O)Nc3ccccc3-c3ccccc3)CC2)c1)NC[C@H](O)c1ccc(O)c2[nH]c(=O)ccc12` [Compound I-12], on hM3 muscarinic receptor, the Ki stood at 0.1 nM. For the same molecule, in assay [1] (setting [2]), the “Broncho. at 24 h” value was “No”. The EC50 on hβ2 adrenergic receptor is 1 nM.
Take `C[C@@H](Cc1cccc(CC(=O)NCCCN(C)C(=O)CCN2CCC(OC(=O)Nc3ccccc3-c3ccccc3)CC2)c1)NC[C@H](O)c1ccc(O)c2[nH]c(=O)ccc12` [Compound I-13, Biphenyl-2-ylcarbamic Acid 1-[2-({3-[2-(3-{(S)-2-[(R)-2-Hydroxy-2-(8-hydroxy-2-oxo-1,2-dihydroquinolin-5-yl)ethylamino]propyl}phenyl)acetylamino]-propyl}methylcarbamoyl)ethyl]piperidin-4-yl Ester Ditrifluoroacetic Acid Salt]: the Ki on hM3 muscarinic receptor is 0.1 nM. For the same molecule, the inhibition in vivo at 0.1 mg in assay [1] (Rattus norvegicus, 24 h) is above 30%. In addition, the EC50 at hβ2 adrenergic receptor stood at 1 nM.
In the case of `CC(Cc1ccc(NC(=O)c2cccc(N(C)C(=O)CCN3CCC(OC(=O)Nc4ccccc4-c4ccccc4)CC3)c2)cc1)NC[C@H](O)c1ccc(O)c2[nH]c(=O)ccc12` (stereo partly drawn) [Compound I-40], in assay [1] (setting [2]), the inhibition in vivo at 0.1 mg was above 30%.
In the case of `C[C@H](Cc1ccc(NC(=O)c2cccc(N(C)C(=O)CCN3CCC(OC(=O)Nc4ccccc4-c4ccccc4)CC3)c2)cc1)NC[C@H](O)c1ccc(O)c2[nH]c(=O)ccc12` [Compound I-42], the “Broncho. at 24 h” value in assay [1] (setting [2]) is “No”.
For the molecule `C[C@@H](Cc1ccc(NC(=O)c2cccc(N(C)C(=O)CCN3CCC(OC(=O)Nc4ccccc4-c4ccccc4)CC3)c2)cc1)NC[C@H](O)c1ccc(O)c2[nH]c(=O)ccc12` [Compound I-43], in assay [1] (setting [2]), the inhibition in vivo at 0.1 mg is above 30%.
As to `CN(C(=O)CCN1CCC(OC(=O)Nc2ccccc2-c2ccccc2)CC1)c1cccc(CC(=O)Nc2cccc(CCNC[C@H](O)c3ccc(O)c4[nH]c(=O)ccc34)c2)c1` [Compound I-62], the inhibition in vivo at 0.1 mg in assay [1] (setting [2]) was above 30%.
Regarding `CC(Cc1cccc(CCNC(=O)Cc2ccc(N(C)C(=O)CCN3CCC(OC(=O)Nc4ccccc4-c4ccccc4)CC3)cc2)c1)NC[C@H](O)c1ccc(O)c2[nH]c(=O)ccc12` (stereo partly drawn) [Compound I-85], the inhibition in vivo at 0.1 mg in assay [1] (setting [2]) was above 30%.
With `C[C@@H](Cc1cccc(CCNC(=O)Cc2ccc(N(C)C(=O)CCN3CCC(OC(=O)Nc4ccccc4-c4ccccc4)CC3)cc2)c1)NC[C@H](O)c1ccc(O)c2[nH]c(=O)ccc12` [Compound I-87], in assay [1] (setting [2]), the “Broncho. at 24 h” value is reported as “Yes (Bronchoprotective effect present at 24 h, e.g., ≧30% inhibition of the MCh response at 24 h in the rat Einthoven assay (100 μg))”.
